{"source": "patent US12435294B2", "about": "“Prevention of the oxidation of perfumery raw materials and food raw materials” (Firmenich SA, priority 2018, dated 2025)", "key": {"[1]": {"assay": "POV reduction in non-citrus essential oil: cinnamon leaf oil", "settings": "4 days treatment, 0.2 mL in 10 mL", "description": "(§1) For each oil, 20 mL was placed in separate 30 mL glass vials, and subjected to the following procedure for 8 days on a daily basis; the vial was opened to refresh the atmospheric headspace, then reclosed and shaken to maximize the gas/liquid contact, then stored on the benchtop under ambient laboratory temperature and lighting conditions. This procedure was designed to mimic the typical handling of a container in a production setting, in which the oil gets consumed in many small aliquots, rather than an entire container at a time.\n(§2) On Day 4, each oil sample was split in half, so two 10 mL aliquots were placed in separate vials to create a “Treated” and an “Untreated” sample. To the Treated sample of each oil type, AKG-DiTMEEA was added as per the Dosing chart below. […] The daily opening, shaking, and standing procedure continued for another four days until the POV measurements were taken. It can be seen that 8 days of such handling of the untreated oils caused significant increases in POV measurement."}, "[2]": {"assay": "POV reduction in sunflower oil", "settings": "0.5081 g in 15 mL sunflower oil"}, "[3]": {"assay": "POV reduction in non-citrus essential oil: basil oil", "settings": "4 days treatment, 0.2 mL in 10 mL", "description": "as §1, §2"}, "[4]": {"assay": "POV reduction in non-citrus essential oil: patchouli oil", "settings": "4 days treatment, 0.2 mL in 10 mL", "description": "as §1, §2"}, "[5]": {"assay": "POV reduction in non-citrus essential oil: pine oil Siberian", "settings": "4 days", "description": "as §1, §2\nFor this reason, two levels of AKG-DiTMEEA treatment were tried, ×2 and ×4 the treatment used on the other oils. […] A different, lower molecular weight 2-oxoacid salt may be a better choice."}, "[6]": {"assay": "POV reduction in non-citrus essential oil: coriander oil", "settings": "4 days treatment, 0.2 mL in 10 mL", "description": "as §1, §2"}, "[7]": {"assay": "POV reduction in non-citrus essential oil: petitgrain oil", "settings": "4 days treatment, 0.2 mL in 10 mL", "description": "as §1, §2"}, "[8]": {"assay": "POV reduction in consumer product spiked with oxidized limonene: antiperspirant stick", "settings": "1% (w/w)"}, "[9]": {"assay": "POV reduction in non-citrus essential oil: lavender oil", "settings": "4 days treatment, 0.2 mL in 10 mL", "description": "as §1, §2"}, "[10]": {"assay": "POV reduction in non-citrus essential oil: star anise oil", "settings": "4 days treatment, 0.2 mL in 10 mL", "description": "as §1, §2"}, "[11]": {"assay": "POV reduction in non-citrus essential oil: cedarwood oil Virginian", "settings": "4 days treatment, 0.2 mL in 10 mL", "description": "as §1, §2"}, "[12]": {"assay": "POV reduction in model citrus perfume (mixed citrus oil in 90/10 v/v ethanol/water)"}, "[13]": {"settings": "leading to evolution of carbon dioxide and pyruvic acid; Krebs 1942; cited from earlier work"}, "pH of aqueous solution": {"assay": "pH of aqueous solution", "type": "physicochemical", "settings": "solution of 0.114 g in 10 mL of water"}, "[14]": {"settings": "Siberian (x2 Treatment Level), 0.2 mL in 5 mL"}, "[15]": {"settings": "Siberian (x4 Treatment Level), 0.4 mL in 5 mL"}, "[16]": {"settings": "8 days* (second line, asterisk not explained)"}}, "note": "Like-named read-outs stand apart in the source and are kept apart here."}
{"smiles": "COCCOCCN(CCOCCOC)CCOCCOC.COCCOCCN(CCOCCOC)CCOCCOC.O=C(O)CCC(=O)C(=O)O", "note": "[AKG-diTMEEA]", "values": [{"measurement": "% Reduction in POV", "setting": "[1]", "value": 87.5, "unit": "%"}, {"measurement": "POV of Treated Oil", "setting": "[1]", "value": 0.57, "unit": "mmol/L"}, {"measurement": "POV of treated oil", "setting": "[2]; 65 minutes since addition", "value": 11.72, "unit": "mmol/L"}, {"measurement": "% Reduction in POV", "setting": "[2]; 65 minutes", "value": 29.2, "unit": "%"}, {"measurement": "% Reduction in POV", "setting": "[2]; 180 mins (3 hrs)", "value": 44.5, "unit": "%"}, {"measurement": "POV of treated oil", "setting": "[2]; 180 mins (3 hrs)", "value": 9.19, "unit": "mmol/L"}, {"measurement": "% Reduction in POV", "setting": "[2]; 1320 mins (22 hrs)", "value": 65.0, "unit": "%"}, {"measurement": "POV of treated oil", "setting": "[2]; 1320 mins (22 hrs)", "value": 5.80, "unit": "mmol/L"}, {"measurement": "% Reduction in POV", "setting": "[2]; 23 days", "value": 88.7, "unit": "%"}, {"measurement": "POV of treated oil", "setting": "[2]; 23 days", "value": 2.10, "unit": "mmol/L"}, {"measurement": "% Reduction in POV", "setting": "[3]", "value": 89.6, "unit": "%"}, {"measurement": "POV of Treated Oil", "setting": "[3]", "value": 2.49, "unit": "mmol/L"}, {"measurement": "% Reduction in POV", "setting": "[4]", "value": 100.0, "unit": "%"}, {"measurement": "POV of Treated Oil", "setting": "[4]", "value": 0.00, "unit": "mmol/L"}, {"measurement": "% Reduction in POV", "setting": "[5]; [14]", "value": 48.4, "unit": "%"}, {"measurement": "POV of Treated Oil", "setting": "[5]; [14]", "value": 24.8, "unit": "mmol/L"}, {"measurement": "% Reduction in POV", "setting": "[5]; [15]", "value": 68.4, "unit": "%"}, {"measurement": "POV of Treated Oil", "setting": "[5]; [15]", "value": 15.21, "unit": "mmol/L"}, {"measurement": "% Reduction in POV", "setting": "[6]", "value": 89.7, "unit": "%"}, {"measurement": "POV of Treated Oil", "setting": "[6]", "value": 2.44, "unit": "mmol/L"}, {"measurement": "% Reduction in POV", "setting": "[7]", "value": 79.9, "unit": "%"}, {"measurement": "POV of Treated Oil", "setting": "[7]", "value": 4.28, "unit": "mmol/L"}, {"measurement": "POV of treated APS", "setting": "[8]; 150 minutes since addition, spiked with oxidized limonene", "value": 3.7, "unit": "mmol/L"}, {"measurement": "% Reduction in POV", "setting": "[8]; 150 minutes", "value": 71.3, "unit": "%"}, {"measurement": "% Reduction in POV", "setting": "[8]; 310 minutes (5.17 h)", "value": 78.3, "unit": "%"}, {"measurement": "POV of treated APS", "setting": "[8]; 310 minutes (5.17 h)", "value": 3.03, "unit": "mmol/L"}, {"measurement": "% Reduction in POV", "setting": "[8]; 26 hrs", "value": 83.2, "unit": "%"}, {"measurement": "POV of treated APS", "setting": "[8]; 26 hrs", "value": 2.46, "unit": "mmol/L"}, {"measurement": "% Reduction in POV", "setting": "[8]; 4 days", "value": 83.8, "unit": "%"}, {"measurement": "POV of treated APS", "setting": "[8]; 4 days", "value": 2.04, "unit": "mmol/L"}, {"measurement": "% Reduction in POV", "setting": "[8]; [16]", "value": 86.6, "unit": "%"}, {"measurement": "POV of treated APS", "setting": "[8]; [16]", "value": 1.8, "unit": "mmol/L"}, {"measurement": "% Reduction in POV", "setting": "[8]; 8 days", "value": 87.0, "unit": "%"}, {"measurement": "POV of treated APS", "setting": "[8]; 8 days", "value": 1.77, "unit": "mmol/L"}, {"measurement": "% Reduction in POV", "setting": "[8]; 15 days", "value": 88.4, "unit": "%"}, {"measurement": "POV of treated APS", "setting": "[8]; 15 days", "value": 1.50, "unit": "mmol/L"}, {"measurement": "% Reduction in POV", "setting": "[8]; 26 days", "value": 88.7, "unit": "%"}, {"measurement": "POV of treated APS", "setting": "[8]; 26 days", "value": 1.42, "unit": "mmol/L"}, {"measurement": "% Reduction in POV", "setting": "[9]", "value": 76.3, "unit": "%"}, {"measurement": "POV of Treated Oil", "setting": "[9]", "value": 5.83, "unit": "mmol/L"}, {"measurement": "% Reduction in POV", "setting": "[10]", "value": 89.2, "unit": "%"}, {"measurement": "POV of Treated Oil", "setting": "[10]", "value": 0.38, "unit": "mmol/L"}, {"measurement": "% Reduction in POV", "setting": "[11]", "value": 95.2, "unit": "%"}, {"measurement": "POV of Treated Oil", "setting": "[11]", "value": 0.72, "unit": "mmol/L"}]}
{"smiles": "O=C(O)CC(=O)C(=O)O", "note": "[oxaloacetic acid]", "values": [{"measurement": "POV of Treated Perfume", "setting": "[12]; 0.0 min, approximately 166 mg (0.83% w/v) in 20 mL model perfume (Example 19)", "value": 9.44, "unit": "mmol/L"}, {"measurement": "POV of Treated Perfume", "setting": "[12]; 27 min, 0.83% w/v in 20 mL model perfume (Example 19)", "value": 5.90, "unit": "mmol/L"}, {"measurement": "POV of Treated Perfume", "setting": "[12]; 245 min, 0.83% w/v in 20 mL model perfume (Example 19)", "value": 1.91, "unit": "mmol/L"}, {"measurement": "reduction in the POV of the formulated perfume (in words)", "setting": "[12]; 24 hours after treatment", "value": "complete reduction"}, {"measurement": "POV of Treated Perfume", "setting": "[12]; […] (24 hours), 0.83% w/v in 20 mL model perfume (Example 19), indistinguishable from blank", "value": "0.0 indistinguishable from mmol/L"}, {"measurement": "stability in aqueous solutions", "setting": "[13]", "value": "unstable in aqueous solutions"}]}
{"smiles": "O=C(O)CCC(=O)C(=O)O", "note": "[α-ketoglutaric acid, alpha-ketoglutaric acid]", "values": [{"measurement": "measured pH", "setting": "pH of aqueous solution", "value": 1.75}, {"measurement": "reduction in the POV of the formulated perfume (in words)", "setting": "[12]", "value": "complete reduction"}]}
